This is an account of results in PMC10176470, “Engaging a Non-catalytic Cysteine Residue Drives Potent and Selective Inhibition of Caspase-6” (Journal of the American Chemical Society, 2023).

What all share (test): SILAC proteomics / in-gel fluorescence, competition of probe 13-t labeling by 3a
The target of assay [1] is proteins of HEK293T cells transiently overexpressing caspase-6 (Homo sapiens, UniProt P62826). Conditions: Comp; protein RAN P62826.
Assay [2] concerns the target proteins of HEK293T cells transiently overexpressing caspase-6 (Homo sapiens, UniProt P46782). Conditions: Comp; protein RPS5 P46782.
The target in assay [3] is proteins of HEK293T cells transiently overexpressing caspase-6 (Homo sapiens, UniProt P31946). To be noted: Comp; protein YWHAB P31946.
The target in assay [4] is proteins of HEK293T cells transiently overexpressing caspase-6 (Homo sapiens, UniProt P13797). To be noted: Comp; protein PLS3 P13797.
Assay [5] has as its target proteins of HEK293T cells transiently overexpressing caspase-6 (Homo sapiens, UniProt Q99460).
For assay [6], the target named is T1, proteins of HEK293T cells transiently overexpressing caspase-6 (Homo sapiens, UniProt O00410).
T1 sequence (O00410 1-1097): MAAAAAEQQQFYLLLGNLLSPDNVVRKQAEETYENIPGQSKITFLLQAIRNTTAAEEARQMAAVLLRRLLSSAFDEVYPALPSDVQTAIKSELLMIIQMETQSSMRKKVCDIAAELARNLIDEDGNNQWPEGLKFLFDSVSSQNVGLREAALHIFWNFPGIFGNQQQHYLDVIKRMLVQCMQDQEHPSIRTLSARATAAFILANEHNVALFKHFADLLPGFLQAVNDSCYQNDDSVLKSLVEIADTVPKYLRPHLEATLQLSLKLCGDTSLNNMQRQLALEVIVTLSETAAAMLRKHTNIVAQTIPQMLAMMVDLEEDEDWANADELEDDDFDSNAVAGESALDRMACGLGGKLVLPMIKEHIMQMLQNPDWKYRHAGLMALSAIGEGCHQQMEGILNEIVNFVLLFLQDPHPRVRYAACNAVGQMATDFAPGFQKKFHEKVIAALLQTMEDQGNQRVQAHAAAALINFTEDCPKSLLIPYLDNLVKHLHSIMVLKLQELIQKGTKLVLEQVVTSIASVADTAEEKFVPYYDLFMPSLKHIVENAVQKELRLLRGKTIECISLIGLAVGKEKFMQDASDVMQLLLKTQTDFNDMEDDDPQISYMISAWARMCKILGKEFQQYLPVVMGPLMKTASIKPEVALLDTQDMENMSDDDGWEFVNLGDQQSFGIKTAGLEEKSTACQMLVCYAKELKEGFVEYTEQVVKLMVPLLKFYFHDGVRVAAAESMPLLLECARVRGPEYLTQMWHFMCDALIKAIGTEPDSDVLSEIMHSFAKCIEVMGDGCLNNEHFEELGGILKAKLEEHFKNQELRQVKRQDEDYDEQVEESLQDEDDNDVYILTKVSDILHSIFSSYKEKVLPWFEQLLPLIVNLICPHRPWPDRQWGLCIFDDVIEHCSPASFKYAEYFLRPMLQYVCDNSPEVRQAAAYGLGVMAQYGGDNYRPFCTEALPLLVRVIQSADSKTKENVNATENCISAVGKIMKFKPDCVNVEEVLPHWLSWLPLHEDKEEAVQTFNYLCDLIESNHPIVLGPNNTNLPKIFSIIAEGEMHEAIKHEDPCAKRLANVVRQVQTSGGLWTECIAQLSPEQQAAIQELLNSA

For assay [7], the target named is proteins of HEK293T cells transiently overexpressing caspase-6 (Homo sapiens, UniProt P39748). Conditions: Comp; protein FEN1 P39748.
For assay [8], the target named is T2, proteins of HEK293T cells transiently overexpressing caspase-6 (Homo sapiens, UniProt P50990).
T2 sequence (P50990 1-548): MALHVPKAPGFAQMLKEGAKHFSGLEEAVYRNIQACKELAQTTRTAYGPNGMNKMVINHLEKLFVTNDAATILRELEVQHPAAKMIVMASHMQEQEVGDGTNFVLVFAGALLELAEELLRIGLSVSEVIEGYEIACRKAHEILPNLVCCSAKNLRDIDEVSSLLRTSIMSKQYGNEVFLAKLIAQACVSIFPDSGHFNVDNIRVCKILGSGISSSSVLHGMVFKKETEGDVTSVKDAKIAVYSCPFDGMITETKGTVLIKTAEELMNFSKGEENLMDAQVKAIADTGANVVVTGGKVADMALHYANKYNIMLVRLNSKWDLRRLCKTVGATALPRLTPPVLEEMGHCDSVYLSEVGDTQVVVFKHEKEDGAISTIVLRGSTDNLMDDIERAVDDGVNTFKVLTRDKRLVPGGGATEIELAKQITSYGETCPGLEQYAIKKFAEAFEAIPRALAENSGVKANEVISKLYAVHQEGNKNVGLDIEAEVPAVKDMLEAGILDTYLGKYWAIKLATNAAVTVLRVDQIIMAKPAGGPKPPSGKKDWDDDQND
Conditions: Comp; protein CCT8 P50990.

Assay [9] has as its target proteins of HEK293T cells transiently overexpressing caspase-6 (Homo sapiens, UniProt P11021).
Assay [10] concerns the target proteins of HEK293T cells transiently overexpressing caspase-6 (Homo sapiens, UniProt Q15233). To be noted: Comp; protein NONO Q15233.
Setting [11] is: protein PSMD1 (Q99460), Exp Comp, analysis C6, p 0.1250, 4 peptides.
Setting [12] is: protein IPO5 (O00410), Exp Comp, analysis C6, p 0.0039, 9 peptides.
The mark [13] stands for this setting: protein HSPA5 (P11021), Exp Comp, analysis C6, p 0.000244, 13 peptides.

Sequence of proteins of HEK293T cells transiently overexpressing caspase-6 (Homo sapiens, UniProt P11021) (P11021 19-654): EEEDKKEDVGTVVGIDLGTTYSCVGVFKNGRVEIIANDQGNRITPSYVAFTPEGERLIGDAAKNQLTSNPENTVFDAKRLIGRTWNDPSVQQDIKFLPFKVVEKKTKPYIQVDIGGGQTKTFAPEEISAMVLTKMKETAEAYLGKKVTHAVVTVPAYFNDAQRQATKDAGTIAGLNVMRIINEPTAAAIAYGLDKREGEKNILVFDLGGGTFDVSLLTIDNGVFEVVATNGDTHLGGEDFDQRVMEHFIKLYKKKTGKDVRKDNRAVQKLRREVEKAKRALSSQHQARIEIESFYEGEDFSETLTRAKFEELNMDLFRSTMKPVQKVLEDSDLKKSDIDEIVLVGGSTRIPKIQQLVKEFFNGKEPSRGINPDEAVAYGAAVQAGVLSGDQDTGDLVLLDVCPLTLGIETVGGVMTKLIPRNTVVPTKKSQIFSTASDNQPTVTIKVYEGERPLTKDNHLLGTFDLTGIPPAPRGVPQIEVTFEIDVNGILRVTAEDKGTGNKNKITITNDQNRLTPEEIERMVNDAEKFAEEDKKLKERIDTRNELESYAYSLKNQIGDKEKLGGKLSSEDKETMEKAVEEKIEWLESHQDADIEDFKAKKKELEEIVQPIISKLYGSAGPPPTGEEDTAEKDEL
Sequence of proteins of HEK293T cells transiently overexpressing caspase-6 (Homo sapiens, UniProt Q99460) (Q99460 whole entry): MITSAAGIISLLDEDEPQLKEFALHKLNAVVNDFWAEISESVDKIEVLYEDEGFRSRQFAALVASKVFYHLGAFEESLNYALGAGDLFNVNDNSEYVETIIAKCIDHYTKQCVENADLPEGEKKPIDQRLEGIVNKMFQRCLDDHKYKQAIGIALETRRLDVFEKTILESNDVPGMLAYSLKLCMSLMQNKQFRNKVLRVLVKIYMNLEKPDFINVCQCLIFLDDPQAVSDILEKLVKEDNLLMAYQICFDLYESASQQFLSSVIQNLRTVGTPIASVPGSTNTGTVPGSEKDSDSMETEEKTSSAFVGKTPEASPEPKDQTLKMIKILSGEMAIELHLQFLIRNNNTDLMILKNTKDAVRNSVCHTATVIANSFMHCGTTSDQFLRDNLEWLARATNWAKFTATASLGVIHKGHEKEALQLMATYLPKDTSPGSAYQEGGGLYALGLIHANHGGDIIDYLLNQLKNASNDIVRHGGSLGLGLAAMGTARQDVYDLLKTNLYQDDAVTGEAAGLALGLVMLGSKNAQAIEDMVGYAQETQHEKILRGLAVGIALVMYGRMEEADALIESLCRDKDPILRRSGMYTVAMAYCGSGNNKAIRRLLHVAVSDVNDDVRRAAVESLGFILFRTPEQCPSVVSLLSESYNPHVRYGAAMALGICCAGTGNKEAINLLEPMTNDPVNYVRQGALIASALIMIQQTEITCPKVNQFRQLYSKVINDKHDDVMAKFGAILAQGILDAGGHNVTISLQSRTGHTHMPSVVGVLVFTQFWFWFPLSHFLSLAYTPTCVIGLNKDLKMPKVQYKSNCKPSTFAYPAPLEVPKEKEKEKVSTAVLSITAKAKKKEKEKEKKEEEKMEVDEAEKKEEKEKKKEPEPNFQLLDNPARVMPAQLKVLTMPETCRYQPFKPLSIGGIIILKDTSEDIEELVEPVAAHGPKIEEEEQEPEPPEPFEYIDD
Sequence of proteins of HEK293T cells transiently overexpressing caspase-6 (Homo sapiens, UniProt P31946) (P31946 whole entry): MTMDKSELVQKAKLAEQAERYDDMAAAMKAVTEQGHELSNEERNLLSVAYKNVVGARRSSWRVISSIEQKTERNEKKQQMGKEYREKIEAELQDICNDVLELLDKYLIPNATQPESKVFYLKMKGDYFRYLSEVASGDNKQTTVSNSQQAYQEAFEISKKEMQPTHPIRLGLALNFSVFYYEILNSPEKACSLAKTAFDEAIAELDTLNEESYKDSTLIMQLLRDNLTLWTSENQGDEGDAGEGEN
Sequence of proteins of HEK293T cells transiently overexpressing caspase-6 (Homo sapiens, UniProt P13797) (P13797 whole entry): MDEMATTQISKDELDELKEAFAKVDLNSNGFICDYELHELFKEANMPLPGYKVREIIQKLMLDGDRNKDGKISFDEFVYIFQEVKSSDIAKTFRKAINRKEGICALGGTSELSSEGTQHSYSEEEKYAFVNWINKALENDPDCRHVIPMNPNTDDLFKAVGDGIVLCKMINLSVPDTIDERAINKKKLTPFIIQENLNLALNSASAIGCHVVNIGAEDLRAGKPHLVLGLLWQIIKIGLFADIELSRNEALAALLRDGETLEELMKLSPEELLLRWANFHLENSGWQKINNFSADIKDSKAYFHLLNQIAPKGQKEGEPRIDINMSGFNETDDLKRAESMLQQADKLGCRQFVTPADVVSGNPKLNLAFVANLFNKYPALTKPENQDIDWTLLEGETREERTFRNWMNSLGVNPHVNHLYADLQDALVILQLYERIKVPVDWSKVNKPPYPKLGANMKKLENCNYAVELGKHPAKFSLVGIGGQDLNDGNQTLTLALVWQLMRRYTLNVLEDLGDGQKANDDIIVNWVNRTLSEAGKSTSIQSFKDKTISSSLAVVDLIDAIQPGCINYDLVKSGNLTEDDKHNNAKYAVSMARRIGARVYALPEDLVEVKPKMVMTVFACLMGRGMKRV
Sequence of proteins of HEK293T cells transiently overexpressing caspase-6 (Homo sapiens, UniProt Q15233) (Q15233 whole entry): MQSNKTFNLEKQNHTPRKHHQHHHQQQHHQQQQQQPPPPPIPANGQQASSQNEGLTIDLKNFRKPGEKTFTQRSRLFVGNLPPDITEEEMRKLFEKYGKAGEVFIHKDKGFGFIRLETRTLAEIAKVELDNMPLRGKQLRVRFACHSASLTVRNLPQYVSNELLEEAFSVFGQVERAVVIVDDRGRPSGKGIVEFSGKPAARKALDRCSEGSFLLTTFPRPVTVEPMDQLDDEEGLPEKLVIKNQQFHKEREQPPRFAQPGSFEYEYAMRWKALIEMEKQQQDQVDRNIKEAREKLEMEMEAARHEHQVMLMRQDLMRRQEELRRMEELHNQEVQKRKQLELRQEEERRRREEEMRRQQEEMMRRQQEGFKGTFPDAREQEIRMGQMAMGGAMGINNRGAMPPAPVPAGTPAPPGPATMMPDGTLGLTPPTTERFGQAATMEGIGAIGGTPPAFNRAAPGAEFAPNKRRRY
Sequence of proteins of HEK293T cells transiently overexpressing caspase-6 (Homo sapiens, UniProt P39748) (P39748 whole entry): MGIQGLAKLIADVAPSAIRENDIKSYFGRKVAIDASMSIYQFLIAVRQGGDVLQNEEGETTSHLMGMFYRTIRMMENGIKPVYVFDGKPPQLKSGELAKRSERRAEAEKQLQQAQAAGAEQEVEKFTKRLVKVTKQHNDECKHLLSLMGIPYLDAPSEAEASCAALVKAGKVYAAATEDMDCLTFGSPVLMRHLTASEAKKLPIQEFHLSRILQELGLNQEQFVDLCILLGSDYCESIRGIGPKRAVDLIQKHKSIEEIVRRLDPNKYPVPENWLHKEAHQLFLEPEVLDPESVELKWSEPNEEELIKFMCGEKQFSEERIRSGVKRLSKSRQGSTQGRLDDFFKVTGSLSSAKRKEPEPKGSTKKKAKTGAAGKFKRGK

Regarding `C=CS(=O)(=O)N1C[C@H](C(=O)Nc2ccc(OC(F)(F)F)cc2)C[C@@H](c2ccccc2)C1` [3a], the enrich.exp.med is on record as 0.6474 in assay [1]; 0.6107 in assay [2]; 0.6188 in assay [3]; 0.6361 in assay [4]; 0.9459 in [5] (Comp, protein PSMD1 Q99460); 1 in [6] (Comp, protein IPO5 O00410). The enrich.exp.med in [7] came out at 0.6295; in assay [8] it was 0.6038; in [9] (Comp, protein HSPA5 P11021), 1.086; in assay [10], 0.6126. The enrich.exp.med.lin in assay [5] (setting [11]) was found to be 1.926; in assay [6] (setting [12]), 2; in [9] (setting [13]) it was 2.123. The enrich.exp.med.log2 is reported as 0.9459 in assay [5] (setting [11]), 1 in assay [6] (setting [12]) and 1.086 in [9] (setting [13]).
